{"source": "ChEMBL document CHEMBL5728179", "about": "“Triazolopyridines” (2020)"}
{"test": "Cellular gamma-Secretase Assay: Human neuroglioma H4 cells overexpressing human APP695 with the Swedish double mutation (K595N/M596L) were plated at 30,000 cells/well/100 μl in 96-well plates in IMDM media containing 10% FCS, […] Hygromycin B and incubated at 37° C., 5% CO2.3-4 hr post plating, compounds are a diluted in media and 50 μl is added as 1.5-fold concentrate to achieve the final concentration. Compound incubation is performed for 24 hr. Final doses typically range from 4 μM down to 0.0013 μM in half-log steps resulting in a eight point dose response curve.Appropriate controls using vehicle only and reference compound were applied to this assay. The final concentration of Me2SO was 0.4%.After incubation at 37° C., 5% CO2, the supernatant was subjected to quantification of secreted Aβ42 by the means of an AlphaLisa assay kit (Human Amyloid beta 1-42 Kit: Cat #AL203C, Perkin Elmer). 20 μl of the cell culture supernatant was transferred to an assay plate. Then 10 μl of a mixture of the AlphaLisa coupled capture antibody and the biotinylated detection antibody was added and incubated for 3 hours at room temperature while softly shaking the assay plate. After a further addition of 20 μl of the Donor beads the assay plate was incubated for 30 min at room temperature and constant shaking without exposure to direct light. The assay plate was then read on a Paradigm AlphaLisa Reader using the build-in program with excitation at 680 nm and emission at 570 nm.The measured signals were then used to calculate IC50 values for inhibition of Aβ42 secretion by nonlinear regression fit analysis using XLfit 5.3 software (IDBS).", "units": {"EC50": "nM"}}
{"compound": "CC(C)c1ccc(OCC(F)(F)F)n2nc(N[C@@H]3[C@@H]4CC[C@H]3CN(c3ccnc(Cl)c3)C4)nc12", "EC50": 11.7}
{"compound": "COc1cc(Nc2nc3c(C(C)C)ccc(OCC(F)(F)F)n3n2)ccc1-c1ccnc(C)c1", "EC50": 21.2}
{"compound": "FC(F)(F)COc1cccc2nc(N[C@@H]3[C@@H]4CC[C@H]3CN(c3ccnc(C(F)(F)F)c3)C4)nn12", "EC50": 43.6}
{"compound": "Cc1ncn(-c2ccc(Nc3nc4c(C(C)C)ccc(OCC(F)(F)F)n4n3)cc2OC(F)F)n1", "EC50": 34.2}
{"compound": "Cc1cc(N2C[C@H]3CC[C@@H](C2)[C@@H]3Nc2nc3c(C(C)(C)O)ccc(O[C@@H](C)C(F)(F)F)n3n2)ncn1", "EC50": 34.6}
{"compound": "COc1cc(N2C[C@H]3CC[C@@H](C2)[C@@H]3Nc2nc3c(C(C)C)ccc(OCC(F)(F)F)n3n2)cnn1", "EC50": 21.2}
{"compound": "Cc1cc(N2C[C@H]3CC[C@@H](C2)[C@@H]3Nc2nc3c(C)ccc(OCC(F)(F)F)n3n2)ncn1", "EC50": 29.9}
{"compound": "COc1cc(Nc2nc3c(C(C)(C)O)ccc(O[C@@H](C)C(F)(F)F)n3n2)ccc1-n1cnc(Cl)n1", "EC50": 42.2}
{"compound": "Cc1cc(N2C[C@H]3CC[C@@H](C2)[C@@H]3Nc2nc3c(C(C)C)ccc(OCC(F)(F)F)n3n2)ncn1", "EC50": 38.5}
{"compound": "COc1cc(Nc2nc3c(C(F)(F)F)ccc(O[C@@H](C)C(F)(F)F)n3n2)ccc1-n1cnc(C)n1", "EC50": 40.5}
{"compound": "Cc1noc(N2C[C@H]3CC[C@@H](C2)[C@@H]3Nc2nc3c(C(C)C)ccc(O[C@@H](C)C(F)(F)F)n3n2)n1", "EC50": 49}
{"compound": "Cc1cn(-c2ccc(Nc3nc4c(C(C)(C)O)ccc(O[C@@H](C)C(F)(F)F)n4n3)cc2C#N)cn1", "EC50": 37.3}
{"compound": "CC(C)c1ccc(O[C@@H](C)C(F)(F)F)n2nc(N[C@@H]3[C@@H]4CC[C@H]3CN(c3cnnc(Cl)c3)C4)nc12", "EC50": 13.2}
{"compound": "Cc1cn(-c2ccc(Nc3nc4c(C(C)C)ccc(OCC(F)(F)F)n4n3)cc2C#N)cn1", "EC50": 49.4}
{"compound": "Cc1ccc(OCC(F)(F)F)n2nc(N[C@@H]3[C@@H]4CC[C@H]3CN(c3cnnc(Cl)c3)C4)nc12", "EC50": 46.5}
{"compound": "Cc1ccc(OCC(F)(F)F)n2nc(N[C@@H]3[C@@H]4CC[C@H]3CN(c3ccnc(C(F)(F)F)c3)C4)nc12", "EC50": 20.6}
{"compound": "CC(C)c1ccc(OCC(F)(F)F)n2nc(N[C@@H]3[C@@H]4CC[C@H]3CN(c3ccnc(C(F)(F)F)c3)C4)nc12", "EC50": 33.2}
{"compound": "COc1cc(Nc2nc3c(C(C)C)ccc(OCC(F)(F)F)n3n2)ccc1-n1cnc(C)n1", "EC50": 26.6}
{"compound": "COc1cc(N2C[C@H]3CC[C@@H](C2)[C@@H]3Nc2nc3c(C(C)C)ccc(O[C@@H](C)C(F)(F)F)n3n2)cnn1", "EC50": 14.2}
{"compound": "Cc1nnc(N2C[C@H]3CC[C@@H](C2)[C@@H]3Nc2nc3c(C(C)C)ccc(O[C@@H](C)C(F)(F)F)n3n2)o1", "EC50": 43.2}
{"compound": "Cc1cc(N2C[C@H]3CC[C@@H](C2)[C@@H]3Nc2nc3cccc(OCC(F)(F)F)n3n2)sn1", "EC50": 7}
{"compound": "COc1cc(N2C[C@H]3CC[C@@H](C2)[C@@H]3Nc2nc3c(C)ccc(OCC(F)(F)F)n3n2)ccn1", "EC50": 15.6}
{"compound": "C[C@H](Oc1ccc(C(C)(C)O)c2nc(N[C@@H]3[C@@H]4CC[C@H]3CN(c3cnnc(Cl)c3)C4)nn12)C(F)(F)F", "EC50": 40}
{"compound": "COc1cc(N2C[C@H]3CC[C@@H](C2)[C@@H]3Nc2nc3c(C(C)C)ccc(OCC(F)(F)F)n3n2)ccn1", "EC50": 25.4}
{"compound": "Cc1cc(N2C[C@H]3CC[C@@H](C2)[C@@H]3Nc2nc3c(C(C)(C)O)ccc(OCC(F)(F)F)n3n2)ncn1", "EC50": 43.8}
{"compound": "Cc1noc(N2C[C@H]3CC[C@@H](C2)[C@@H]3Nc2nc3c(C(C)C)ccc(OCC(F)(F)F)n3n2)n1", "EC50": 37.4}
{"compound": "CC(C)(O)c1ccc(OCC(F)(F)F)n2nc(N[C@@H]3[C@@H]4CC[C@H]3CN(c3ccnc(C(F)(F)F)c3)C4)nc12", "EC50": 44.8}
{"compound": "CC(C)c1ccc(OCC(F)(F)F)n2nc(N[C@@H]3[C@@H]4CC[C@H]3CN(c3cnnc(Cl)c3)C4)nc12", "EC50": 23.2}
{"compound": "COc1cc(Nc2nc3c(C(C)(C)O)ccc(O[C@@H](C)C(F)(F)F)n3n2)ccc1-n1cnc(C)n1", "EC50": 39}
{"compound": "Cc1ncn(-c2ccc(Nc3nc4c(C(C)(C)O)ccc(OCC(F)(F)F)n4n3)cc2OC(F)F)n1", "EC50": 45.5}
{"compound": "COc1cc(N2C[C@H]3CC[C@@H](C2)C3Nc2nc3c(C(C)C)ccc(O[C@@H](C)C(F)(F)F)n3n2)ccn1", "note": "(some centres not stated)", "EC50": 19.6}
{"compound": "Cc1ccc(OCC(F)(F)F)n2nc(N[C@@H]3[C@@H]4CC[C@H]3CN(c3ccnc(Cl)c3)C4)nc12", "EC50": 9.2}
